Source: patent US20250121013A1, “USE OF BACILLUS AMYLOLIQUEFACIENS FOR PREVENTING AND TREATING PARKINSON'S DISEASE” (Artugen Therapeutics Ltd., priority 2021, published 2025)

What was measured:
MPTP-induced model of PD [1] = assay: MPTP-induced mouse model of PD, striatal dopamine and DOPAC (Example 1); format: in vivo
Method: • Route(s) of administration: IP for MPTP (1-Methyl-4-phenyl-1,2,3,6-tetrahydropyridine hydrochloride) and vehicle, PO for ART24 and vehicle (trehalose) • Dose Volume(s): 10 mL/kg for MPTP, 0.1 mL for ART24 • Formulation(s): PBS for MPTP; saline-based formulation for ART24 • Dose Levels: 20 mg/kg for MPTP, for ART24 • Dose Frequency: 4 doses (QD) for MPTP; 11 days BID for ART24 • Study duration: 11 days • Number of Groups: 4 • Number of animals per group: 13 • Total number of animals: 52 (57 animals were enrolled in the study)
MPTP model. MPTP was formulated in phosphate buffered saline (PBS) and administered to mice QD for 4 days at a dose of 20 mg/kg (2 mg/mL delivered as 10 mL/kg).
Neurotransmitter measurements (DA and DOPAC). 10 mice from each were anesthetized and blood collected into K2EDTA tubes by a cardiac puncture. Brains were extracted and dissected. The rostral part was dissected and striata removed. The striata were frozen and subsequently evaluated for levels of dopamine and metabolites.
Striata were homogenized in 0.3M perchloric acid. The resulting supernatant was analyzed for levels of monoamines by reverse phase HPLC-ECD.
Data analysis. Data were analyzed using a two-way repeated measures ANOVA with a post hoc Fisher's LSD multiple comparison test. The raw data were also analyzed for outliers using ROUT method (Q=1%). GraphPad Prism 9 was used for data analysis and presentation.

MPTP-induced model of PD [2] = assay: Locomotion activity in MPTP zebrafish model (Example 6); format: in vivo; conditions: larvae; MPTP 250 μM 96 to 120 hpf; ART24 4×10^6 CFU/mL in water of MPTP-exposed fish; 50 min alternating dark/light
Method: Zebrafish larvae were dosed with MPTP (250 μM; 96 to 120 hours post fertilization) or sham treated (DMSO only; n=22) in water. ART24 was dosed in water of MPTP-exposed fish (4×10^6 CFU/mL; n=16). Movement was evaluated with an imaging system during 50 min of testing consisting of 10-min periods of alternating darkness/bright light. Data was analyzed by one-way ANOVA followed by a Dunnet test comparing against MPTP treatment.

[3] = compared to saline/MPTP dosed animals, PO BID Day -3 to Day 7, MPTP 20 mg/kg IP QD 4 days, n=10/group
[4] = MPTP 20 mg/kg IP QD 4 days compared to saline/vehicle treated animals

| Structure (SMILES) | DOPAC concentration in the striatum (MPTP-induced model of PD [1]; [3]) | dopamine concentration in the striatum (MPTP-induced model of PD [1]; [3]) | DOPAC content in the striatum (MPTP-induced model of PD [1]; [4]) | dopamine content in the striatum (MPTP-induced model of PD [1]; [4]) | total motor movement distance (MPTP-induced model of PD [2]) |
| --- | --- | --- | --- | --- | --- |
| OC[C@H]1O[C@H](O[C@H]2O[C@H](CO)[C@@H](O)[C@H](O)[C@H]2O)[C@H](O)[C@@H](O)[C@@H]1O [trehalose] | did not produce a significant effect | did not produce a significant effect | – | – | – |
| CN1CC=C(c2ccccc2)CC1.Cl [MPTP, 1-Methyl-4-phenyl-1,2,3,6-tetrahydropyridine hydrochloride] | – | – | significant depletion | significant depletion | 24 % of sham |
